The source of these data is patent publication US20230310445A1, “LOX ENZYME INHIBITING METHODS AND COMPOSITIONS” (ANOVIA BIOSCIENCES, INC., priority 2020, published 2023).

Assay [1] has as its target T1, Bovine lysyl oxidase (LOX) (Bos taurus, UniProt P33072).
T1 construct: from tissue; host or cells: adult bovine tendon
T1 sequence (P33072 170-418): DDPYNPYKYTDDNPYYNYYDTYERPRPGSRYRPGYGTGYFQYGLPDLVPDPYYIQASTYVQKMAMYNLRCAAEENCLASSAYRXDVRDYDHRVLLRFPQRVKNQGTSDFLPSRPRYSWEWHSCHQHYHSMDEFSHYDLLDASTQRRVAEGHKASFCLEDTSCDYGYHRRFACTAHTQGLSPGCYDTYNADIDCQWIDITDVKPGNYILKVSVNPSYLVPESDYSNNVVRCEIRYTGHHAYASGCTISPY
The assay is described as follows: LOX inhibition assay (fluorometric, cadaverine/Amplex Red/HRP). As to conditions: IC50 class; bovine tendon LOX, cadaverine substrate; read-out: Activity Range LOX. Format: biochemical. As to the method:
(§1) The ability of compounds to inhibit prototypic LOX was determined using a fluorometric assay. This assay measures the activity of lysyl oxidases by coupling the reaction with horseradish peroxidase-catalyzed […]. The activity assay protocol uses cadaverine as substrate that releases hydrogen peroxide upon transformation by prototypic LOX enzyme present in the sample. Hydrogen peroxide is in turn detected using a red fluorescence substrate for HRP-coupled reactions (Amplex Red Enzyme Assays, Thermo Scientific Fisher). This leads to increase in fluorescence that can be easily detected at Ex/Em=540/590 nm in a fluorescence microplate reader.
Enzyme: Bovine lysyl oxidase (LOX) was extracted by adapting the methodology from [Kagan et al. 1979 and Borel et al. 2001.] from bovine tendon: Frozen adult bovine tendon was placed in room temperature water to defrost, and then membranes were removed and the remaining tissue cut into 1 cm pieces. The material was first passed through a course mesh meat grinder, and this mince was passed through a fine mesh grinder. The mince was homogenized in 10 v/w of buffer (16 mM sodium phosphate buffer pH 7.8, 400 mM NaCl) using a Waring blender. The homogenate was centrifuged at 15,000×g for 15 min at 4° C. After centrifugation, the supernatant was discarded and the pellets resuspended in 10 volumes of the same buffer. The mixture was blended again and centrifuged with the same settings. This time the pellets were blended in 3 volumes of extraction buffer (16 mM sodium phosphate buffer pH 7.8) and left to incubate at 4° C. for 2 h. After this time, the slurry was centrifuged with the same settings as described above. The supernatant was used in an ultrafiltration step to remove large proteins by size exclusion through a 30 kDalton filter (EMD Millipore). The filtrate was mixed with DEAE Sephadex (GE Healthcare), or passed over a MonoQ FPLC column. After two washes, one in 16 mM sodium phosphate buffer pH 7.8, 380 mM NaCl, and another in 16 mM sodium phosphate buffer pH 7.8, the proteins were eluted with 16 mM sodium phosphate pH 7.8, 10 μM CuSO4, and 4 M urea. Fractions containing Lox activity were collected and stored frozen at −70° C.
Reaction: Final concentration in the LOX assay was as following and performed in a total volume of […]:
Experimental procedure: 7 μl of freshly prepared reaction buffer were delivered to reaction wells. Compounds were resuspended in 100% DMSO at 10 mM and delivered into buffer using acoustic technology (Echo550; nanoliter range). A 2.85× solution of LOX protein in reaction buffer was prepared (“LOX solution”) and 7 μl of LOX solution was added into the reaction wells. Buffer only was added to column 1 for no protein control. Reactions were incubated for 30 minutes at 37° C. A 3.33× mixture of cadaverine, Amplex Red, and HRP (“Substrate/Detection Mix) was prepared and subsequently 6 μL of the mixture was added to each reaction well. Progress of reactions was monitored for 120 minutes at 37° C. using Clariostar plate reader (ex530-12, ems 600-40). For all activity assays, pan-LOX inhibitor CCT365623 (Tang et al, 2017) and LOXL2/LOXL3 inhibitor PAT-1251 (PharmaKea) were included as standards.
Data analysis: Slope of the linear portion of the progress curve was calculated using Clariostar software. Typical analysis interval was between 20-50 min, but varied between experiments. The background subtracted signals (No protein wells were considered as background) were converted to % activity relative to DMSO controls. Data was analyzed using GraphPad Prism 4 with “sigmoidal dose-response (variable slope)”; 4 parameters with Hill Slope. Constraints: Bottom=Constant equal to 0. Top=Must be less than 120.

Assay [2] addresses T2, Recombinant human LOXL2 (lysyl oxidase like 2) (Homo sapiens, UniProt Q9Y4K0).
T2 construct: purchased R&D systems
T2 sequence (Q9Y4K0 26-774): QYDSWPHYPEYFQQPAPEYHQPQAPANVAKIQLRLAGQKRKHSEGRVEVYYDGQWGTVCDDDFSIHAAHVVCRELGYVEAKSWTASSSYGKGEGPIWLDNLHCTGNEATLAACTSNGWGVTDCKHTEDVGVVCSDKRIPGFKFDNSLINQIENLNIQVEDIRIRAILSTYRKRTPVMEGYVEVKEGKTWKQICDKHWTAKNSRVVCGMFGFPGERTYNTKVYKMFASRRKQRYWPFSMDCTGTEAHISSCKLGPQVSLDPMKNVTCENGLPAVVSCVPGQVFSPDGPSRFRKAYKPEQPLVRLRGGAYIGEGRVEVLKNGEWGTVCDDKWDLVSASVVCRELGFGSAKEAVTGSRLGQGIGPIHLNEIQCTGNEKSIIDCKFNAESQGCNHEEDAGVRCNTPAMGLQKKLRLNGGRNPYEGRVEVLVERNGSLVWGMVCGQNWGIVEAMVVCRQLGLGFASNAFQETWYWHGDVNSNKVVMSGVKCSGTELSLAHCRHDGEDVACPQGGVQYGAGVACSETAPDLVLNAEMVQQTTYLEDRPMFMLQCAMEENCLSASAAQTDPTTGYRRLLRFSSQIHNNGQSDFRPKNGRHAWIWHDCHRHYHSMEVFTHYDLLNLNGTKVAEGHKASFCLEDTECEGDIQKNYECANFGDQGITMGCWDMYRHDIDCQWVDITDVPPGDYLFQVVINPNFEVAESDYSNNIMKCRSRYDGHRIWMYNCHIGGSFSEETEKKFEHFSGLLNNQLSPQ
The assay is described as follows: LOXL2 inhibition assay (fluorometric, cadaverine/Amplex Red/HRP). Format: biochemical. Particulars: IC50 class; recombinant human LOXL2, cadaverine substrate; read-out: Activity Range LOXL2. Here is the method: as §1, with “inhibit one or more of the lysyl oxidases LOXL2 and/or LOXL3” for “inhibit prototypic LOX”, “by the specific” for “by prototypic”, “LOX family” for “LOX”
Enzymes: Recombinant human LOXL2 (lysyl oxidase like 2) and recombinant human LOXL3 (lysyl oxidase like 3) were purchased from R&D systems and assays were performed in 1.2 M urea, 50 mM sodium borate buffer pH 8.0, and 10 mM CaCl.
Reaction: Final concentration in the LOXL2 and LOXL3 assays were as following and performed in a total volume of […]:
Experimental procedure: 5 μl of freshly prepared reaction buffer were delivered to reaction wells. Compounds were resuspended in 100% DMSO at 10 mM and delivered into buffer using acoustic technology (Echo550; nanoliter range). A 3× solution of LOXL2 or LOXL3 in reaction buffer was prepared (“enzyme solution”) and 5 μL of enzyme solution was added into the reaction wells. Buffer only was added to column 1 for no protein control. Reactions were incubated for 30 minutes at 37° C. A 3×mixture of cadaverine, Amplex Red, and HRP (“Substrate/Detection Mix) was prepared and subsequently 5 μL of the mixture added to each reaction well. Progress of reactions was monitored for 60 minutes at 37° C. using Clariostar plate reader (ex 530-12, ems 600-40). For all activity assays, pan-LOX inhibitor CCT365623 (Tang et al, 2017) and LOXL2/LOXL3 inhibitor PAT-1251 (PharmaKea) were included as standards.
Data analysis: Slope of the linear portion of the progress curve was calculated using Clariostar software. Typical analysis interval was between 8-30 min, but varied between experiments. The background subtracted signals (No protein wells are considered as background) were converted to % activity relative to DMSO controls. Data was analyzed using GraphPad Prism 4 with “sigmoidal dose-response (variable slope)”; 4 parameters with Hill Slope. Constraints: Bottom=Constant equal to 0. Top=Must be less than 120.

As for `NCc1cccc(S(=O)(=O)[C@H]2C[C@@H](C(=O)N3CCS(=O)(=O)CC3)CN(C3CCCCC3)C2)c1` (racemic) [Example 143, cis-(5-((3-(Aminomethyl)phenyl)sulfonyl)-1-cyclohexylpiperidin-3-yl)(1,1-dioxidothiomorpholino)methanone 2,2,2-trifluoroacetate], the IC50 in assay [1] was over 30 µM; in assay [2], at most 0.5 µM.
For `CS(=O)(=O)N1CCN(C(=O)[C@H]2C[C@@H](c3ccccc3)CN(S(=O)(=O)c3cccc(CN)n3)C2)CC1` (racemic) [Example 116], in that order: over 30 µM and 1 to 30 µM.
As for `NCc1ccnc(S(=O)(=O)N2C[C@H](C(=O)N3CCOCC3)C[C@H](N3CCCCC3=O)C2)c1` (racemic) [Example 186, cis-1′-((4-(Aminomethyl)pyridin-2-yl)sulfonyl)-5′-(morpholine-4-carbonyl)-[1,3′-bipiperidin]-2-one 2,2,2-trifluoroacetate], the IC50 in assay [1] is 1 to 30 µM; in assay [2], at most 0.5 µM.
As to `NCc1cncc(S(=O)(=O)N2C[C@@H](C(=O)N3CCS(=O)(=O)CC3)C[C@@H](c3ccccc3)C2)c1` (racemic) [Example 132, cis-(1-((5-(Aminomethyl)pyridin-3-yl)sulfonyl)-5-phenylpiperidin-3-yl)(1,1-dioxidothiomorpholino)methanone 2,2,2-trifluoroacetate], the IC50 in assay [1] is over 30 µM; in assay [2], 1 to 30 µM.
For `NCc1cnc(S(=O)(=O)N2C[C@@H](C(=O)N3CCS(=O)(=O)CC3)C[C@@H](c3ccccc3)C2)s1` (racemic) [Example 112, cis-(1-((5-(Aminomethyl)thiazol-2-yl)sulfonyl)-5-phenylpiperidin-3-yl)(1,1-dioxidothiomorpholino)methanone 2,2,2-trifluoroacetate] the same measures were 1 to 30 µM and at most 0.5 µM.
For `NCc1ccc(S(=O)(=O)N2C[C@@H](C(=O)N3CCNCC3)C[C@@H](c3ccccc3)C2)s1` (racemic) [Example 15, cis-(1-((5-(Aminomethyl)thiophen-2-yl)sulfonyl)-5-phenylpiperidin-3-yl)(piperazin-1-yl)methanone 2,2,2-trifluoroacetate] the same measures were 0.5 to 1 µM and at most 0.5 µM.
For `CS(=O)(=O)N1CCN(C(=O)[C@H]2C[C@@H](c3ccccc3)CN(S(=O)(=O)c3ncc(CN)s3)C2)CC1` (racemic) [Example 113, cis-(1-((5-(Aminomethyl)thiazol-2-yl)sulfonyl)-5-phenylpiperidin-3-yl)(4-(methylsulfonyl)piperazin-1-yl)methanone 2,2,2-trifluoroacetate], in that order: 1 to 30 µM and at most 0.5 µM.
Consider `NCc1ccc(S(=O)(=O)N2C[C@@H](C(=O)N3CCS(=O)(=O)CC3)C[C@@H](c3ccccc3)C2)s1` (racemic) [Example 75, cis-(1-((5-(Aminomethyl)thiophen-2-yl)sulfonyl)-5-phenylpiperidin-3-yl)(1,1-dioxidothiomorpholino)methanone 2,2,2-trifluoroacetate], for which the IC50 in assay [1] and in assay [2] was at most 0.5 µM each time.
As for `NCc1cccc(O[C@H]2C[C@H](c3ccccc3)CN(C(=O)N3CCS(=O)(=O)CC3)C2)c1` (racemic) [Example 82, trans-(3-(3-(Aminomethyl)phenoxy)-5-phenylpiperidin-1-yl)(1,1-dioxidothiomorpholino)methanone], the results for the IC50 in assay [1] and in assay [2] were over 30 µM and 1 to 30 µM, respectively.
Take `NCc1cc(S(=O)(=O)N2C[C@@H](C(=O)N3CCS(=O)(=O)CC3)C[C@@H](c3ccccc3)C2)ccn1` (racemic) [Example 130, cis-(1-((2-(Aminomethyl)pyridin-4-yl)sulfonyl)-5-phenylpiperidin-3-yl)(1,1-dioxidothiomorpholino)methanone 2,2,2-trifluoroacetate]: the IC50 in assay [1] was in the range of 1 to 30 µM; in assay [2] it was 0.5 to 1 µM.
For `CS(=O)(=O)N1CCN(C(=O)[C@@H]2C[C@@H](c3ccccc3)CN(S(=O)(=O)c3cccc(CN)c3)C2)CC1` (racemic) [Example 84, trans-(1-((3-(Aminomethyl)phenyl)sulfonyl)-5-phenylpiperidin-3-yl)(4-(methylsulfonyl)piperazin-1-yl)methanone 2,2,2-trifluoroacetate] the same measures were 1 to 30 µM and at most 0.5 µM.
